We go through 11 compounds from ChEMBL document CHEMBL1201862, “PubChem BioAssay data set” (2004).

Among the test systems are ACHN; OVCAR-8; KM12; LOX IMVI; RXF 393; NCI-H522; TK-10; SK-OV-3; UACC-257; OVCAR-5; CAKI-1; HCT-116; HOP-92; HOP-62; T47D; PC-3; Malme-3M; K562; MOLT-4; HL-60.
Experiment in all cases: growth of human tumour cells (NCI), 48 h

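Grown in 96-well plates, cells were treated for 48 hours with each compound at five concentrations. Insufficient inhibition: endpoint recorded as highest concentration tested. GI50: concentration for 50% inhibition of growth.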 Calls of active or inactive are those of the source. No stated cut-off is given here; in the data, active = GI50 up to about 1.1 µM and inactive = higher.

As to `O=c1c2ccccc2c2ccccc2c(=O)n1-c1cc2c3ccccc3ccc2c2ccccc12`, the GI50 with ACHN, with OVCAR-8, with KM12, in the assay with LOX IMVI, in the assay with RXF 393 and in the assay on NCI-H522 was > 100 µM (inactive) throughout. Also, the GI50 in the assay on TK-10, in the assay with SK-OV-3, with UACC-257, in the assay with OVCAR-5, in the assay on CAKI-1 and in the assay with HCT-116 was > 100 µM (inactive) throughout. Also, the GI50 with HOP-92, in the assay on HOP-62, in the assay with T47D, in the assay on PC-3 and with Malme-3M was > 100 µM (inactive) each time.
For the compound `CC1(C)C(=O)C2(C#N)CCC1C2` (stereo unspecified), the GI50 in the assay with ACHN, with OVCAR-8, in the assay with KM12, with LOX IMVI, in the assay on RXF 393 and in the assay with K562 was > 100 µM (inactive) throughout. In addition, the GI50 in the assay on TK-10, with SK-OV-3, in the assay on UACC-257, in the assay with OVCAR-5, in the assay on CAKI-1 and with HCT-116 was > 100 µM (inactive) throughout. Besides, the GI50 in the assay on HOP-92, with HOP-62, in the assay on T47D, in the assay with MOLT-4, in the assay with PC-3 and with HL-60 was > 100 µM (inactive) in each case. In addition, the GI50 in the assay on Malme-3M was > 100 µM (inactive).
As for `CN(C(=O)C12C3(C(=O)O)C4C5(C(=O)O)C3C1(C(=O)O)C5C42C(=O)O)C(C)(C)C` (stereo unspecified), the GI50 in the assay with ACHN, in the assay on OVCAR-8, in the assay with KM12, in the assay with LOX IMVI, in the assay with RXF 393 and in the assay on NCI-H522 was > 100 µM (inactive) throughout. Moreover, the GI50 with K562, in the assay on TK-10, with UACC-257, in the assay with OVCAR-5, in the assay with CAKI-1 and with HCT-116 was > 100 µM (inactive) in each case. Also, the GI50 in the assay on HOP-92, in the assay on HOP-62, in the assay with T47D, in the assay with MOLT-4, in the assay with PC-3 and in the assay with HL-60 was > 100 µM (inactive) in each case.
Take `CCCCn1c(C)c(C(=O)OCC)s/c1=N/Nc1nc2ccccc2nc1-c1ccccc1`: the GI50 is 78.3 µM (inactive) in the assay with ACHN; 56.2 µM (inactive) in the assay with OVCAR-8; > 100 µM (inactive) in the assay on LOX IMVI; > 100 µM (inactive) in the assay with RXF 393; 41.2 µM (inactive) in the assay on NCI-H522; > 100 µM (inactive) in the assay with K562. For the same compound, the GI50 is > 100 µM (inactive) with TK-10; 53.3 µM (inactive) in the assay on SK-OV-3; > 100 µM (inactive) in the assay on UACC-257; > 100 µM (inactive) with OVCAR-5; > 100 µM (inactive) with CAKI-1; > 100 µM (inactive) in the assay on HCT-116. Besides, the GI50 in the assay on HOP-92 is 44 µM (inactive); with HOP-62, 30.8 µM (inactive); in the assay with T47D, 52.1 µM (inactive); in the assay on MOLT-4 it was > 100 µM (inactive); in the assay with PC-3, 30.9 µM (inactive); in the assay on HL-60, 17.9 µM (inactive).
Regarding `COP(=O)(OC)OCN(C)CC/C=C(\C)CC/C=C(\C)CCC=C(C)C`, the GI50 in the assay with ACHN is 22.8 µM (inactive); in the assay on OVCAR-8 it was 16 µM (inactive); in the assay with KM12, 15.2 µM (inactive); in the assay with LOX IMVI, 15.8 µM (inactive); in the assay with RXF 393, 16.9 µM (inactive); in the assay with NCI-H522 it was 13.4 µM (inactive). Further, the GI50 with K562 is 6.21 µM (inactive); in the assay with TK-10, 10.3 µM (inactive); in the assay with SK-OV-3, 28.5 µM (inactive); with UACC-257 it was 5.02 µM (inactive); in the assay on OVCAR-5, 15.5 µM (inactive); with CAKI-1, 17.6 µM (inactive). Further, the GI50 in the assay on HCT-116 is 11.8 µM (inactive); in the assay with HOP-92 it was 17.6 µM (inactive); with HOP-62, 16.1 µM (inactive); in the assay on T47D, 16.4 µM (inactive); with MOLT-4, 13.6 µM (inactive); in the assay with PC-3, 7.57 µM (inactive). Further, in the assay with Malme-3M, the GI50 is 14.9 µM (inactive).
As to `O=C1CCCCCCCCCCC1CCCCCBr` (stereo unspecified), the GI50 in the assay with ACHN is 27.4 µM (inactive); in the assay on OVCAR-8, 31.8 µM (inactive); in the assay with KM12 it was 23.1 µM (inactive); in the assay on LOX IMVI it was 19 µM (inactive); in the assay with RXF 393, 19.6 µM (inactive); with NCI-H522, 19.6 µM (inactive). Moreover, the GI50 is 16.1 µM (inactive) in the assay on K562; 44 µM (inactive) in the assay with TK-10; 57.9 µM (inactive) in the assay on SK-OV-3; 21.3 µM (inactive) in the assay on UACC-257; 25.1 µM (inactive) in the assay on OVCAR-5; 31.2 µM (inactive) in the assay on CAKI-1. The GI50 was 17 µM (inactive) in the assay on HCT-116; 18.4 µM (inactive) in the assay on HOP-92; 29.2 µM (inactive) in the assay with HOP-62; 24.2 µM (inactive) in the assay on T47D; 17.1 µM (inactive) in the assay on MOLT-4; 31.2 µM (inactive) in the assay with PC-3. Further, the GI50 in the assay with Malme-3M is 15.8 µM (inactive).
As to `O=C(CCCCCCCCC(=O)N1C(=O)CC(=O)N(c2ccccc2)C1=S)N1C(=O)CC(=O)N(c2ccccc2)C1=S`, the GI50 in the assay on ACHN, with OVCAR-8, in the assay with KM12, in the assay with LOX IMVI, in the assay on RXF 393 and in the assay on NCI-H522 was > 100 µM (inactive) throughout. The GI50 with TK-10, with SK-OV-3, in the assay on UACC-257, with OVCAR-5, in the assay with CAKI-1 and in the assay with HCT-116 was > 100 µM (inactive) each time. In addition, the GI50 with HOP-92, in the assay with HOP-62, with T47D, in the assay with MOLT-4, in the assay with PC-3 and in the assay on Malme-3M was > 100 µM (inactive) in each case.
As for `OCCCCn1cc(Cn2ncc3c(SCc4ccccc4)ncnc32)nn1`, the GI50 is 67.6 µM (inactive) in the assay on ACHN; 58.3 µM (inactive) in the assay with OVCAR-8; 26 µM (inactive) in the assay with KM12; 72.4 µM (inactive) with LOX IMVI; 64.9 µM (inactive) in the assay with RXF 393; 29.2 µM (inactive) in the assay with NCI-H522. Besides, the GI50 with K562 is 38.8 µM (inactive); with TK-10, > 100 µM (inactive); in the assay with SK-OV-3, 89.1 µM (inactive); in the assay with UACC-257, 49.4 µM (inactive); in the assay with OVCAR-5 it was > 100 µM (inactive); with CAKI-1 it was 31 µM (inactive). For the same compound, the GI50 in the assay with HCT-116 is 33.6 µM (inactive); with HOP-92 it was > 100 µM (inactive); with HOP-62, 44.1 µM (inactive); with T47D, 32.2 µM (inactive); in the assay on MOLT-4, 21.3 µM (inactive); in the assay with PC-3, 61.2 µM (inactive). Besides, the GI50 in the assay on Malme-3M was > 100 µM (inactive).
As to `CC1=CC(=O)/C(=C/n2c(=S)[nH]c3ccccc32)C(=O)O1`, the GI50 in the assay on ACHN is > 100 µM (inactive); in the assay on OVCAR-8, > 100 µM (inactive); with KM12 it was > 100 µM (inactive); in the assay on LOX IMVI, > 100 µM (inactive); in the assay with RXF 393 it was 51.5 µM (inactive); with NCI-H522, > 100 µM (inactive). The GI50 with K562, in the assay on TK-10, in the assay on SK-OV-3, in the assay on UACC-257, with OVCAR-5 and in the assay with CAKI-1 was > 100 µM (inactive) in each case. Further, the GI50 with HCT-116, with HOP-92, in the assay with HOP-62, in the assay on T47D, in the assay on MOLT-4 and in the assay with PC-3 was > 100 µM (inactive) throughout. In addition, the GI50 in the assay on HL-60 was < 0.01 µM (active).
Regarding `COc1ccc(NC(C)=O)c(C(O)CCNC(C)=O)c1` (stereo unspecified), the GI50 in the assay with ACHN, in the assay with OVCAR-8, in the assay with KM12, with LOX IMVI, in the assay with RXF 393 and in the assay on NCI-H522 was > 100 µM (inactive) throughout. Also, the GI50 in the assay with TK-10, in the assay with SK-OV-3, in the assay on UACC-257, with OVCAR-5, in the assay with CAKI-1 and in the assay with HCT-116 was > 100 µM (inactive) in each case. Moreover, the GI50 with HOP-92, with T47D, with MOLT-4, in the assay on PC-3 and in the assay with HL-60 was > 100 µM (inactive) throughout.
Turning to `NCCO/C=C/C(N)C(=O)O` (stereo unspecified) [AMINOETHOXYVINYLGLYCINE], the GI50 in the assay with ACHN was > 100 µM (inactive); in the assay on OVCAR-8 it was > 100 µM (inactive); with KM12, > 100 µM (inactive); in the assay on LOX IMVI, > 100 µM (inactive); in the assay with RXF 393, > 100 µM (inactive); with NCI-H522 it was 10.1 µM (inactive). The GI50 with K562, in the assay with TK-10, in the assay on SK-OV-3, with UACC-257, with OVCAR-5 and with CAKI-1 was > 100 µM (inactive) throughout. Further, the GI50 with HCT-116, in the assay with HOP-92, with HOP-62, in the assay on T47D, in the assay on PC-3 and with HL-60 was > 100 µM (inactive) each time.
